From patent US7718767B2, “3-ether and 3-thioether substituted cyclosporin derivatives for the treatment and prevention of hepatitis C infection” (Scynexis, Inc., priority 2006, dated 2010) come the findings set out here.

Series [1] deals with human hepatoma cell line ET. Nature of the series: Cytotoxicity in the replicon cell line, colorimetric assay of cell numbers. Conditions: ET cells, 72 h; for IC50: read-out: Cytotoxicity IC50, concentration inhibiting cell viability by 50%; for IC90: read-out: Cytotoxicity IC90, concentration inhibiting cell viability by 90%. From the text: Compounds were examined in the human hepatoma cell line ET (lub ubi heo/ET), a HCV RNA replicon containing a stable luciferase (LUC) reporter. The HCV RNA replicon ET contains the 5′ end of HCV (with the HCV Internal Ribosome Entry Site (IRES) and the first few amino acids of the HCV core protein) which drives the production of a firefly luciferase (LUC), ubiquitin, and neomycin phosphotransferase (NeoR) fusion protein. Ubiquitin cleavage releases the LUC and NeoR proteins. The EMCV IRES element controls the translation of the HCV […] NS3-NS5. The NS3 protein cleaves the HCV polyprotein to release the mature NS3, NS4A, NS4B, NS5A and NS5B proteins that are required for HCV replication. At the 3′ end of the replicon is the authentic 3′ NTR of HCV. The activity of the LUC reporter is directly proportional to HCV replication levels and positive-control antiviral compounds produce a reproducible antiviral response using the LUC endpoint.
The compounds were dissolved in DMSO at five half-log concentrations each, ranging from either 0.02 to 2.0 μM, 0.03 to 3 μM, […], or 1 to 100 μM. Subconfluent cultures of the ET line were plated out into 96 well plates dedicated for the analysis of cell numbers (cytotoxicity) or antiviral activity and the next day the compounds were added to the appropriate wells. The cells were processed 72 h later when the cells were still subconfluent. […] The activity of the LUC reporter is directly proportional to HCV RNA levels in the human cell line. The HCV-replicon assay was validated in parallel experiments using interferon-alpha-2b as a positive control.
(Replicon systems follow genome replication, usually without infectious particles.)

Series [2] relates to HCV RNA replicon ET. In words: HCV RNA replicon luciferase reporter assay, antiviral activity. The settings on record: ET replicon cells, 72 h, LUC activity; for EC50: concentration reducing viral replication by 50%; for EC90: concentration reducing viral replication by 90%. It counts as cell-based.
Series [3] deals with HIV-1IIIB. Nature of the series: HIV MTS cytoprotection assay in CEM-SS cells. It counts as cell-based, human immunodeficiency virus-1. Conditions: 6 days post-infection, concentration inhibiting virus replication by 50%. On the technique in general: Tetrazolium assays rely on reduction of a dye to a coloured formazan, in cell work by metabolically active cells.

By IC50 is commonly meant the concentration at which inhibition is half-maximal. As a reminder, the IC90 is the point of the concentration-response curve where the effect stands at 90%. One may read the EC50 as the concentration that produces a half-maximal response. Read a low EC50 as an effect from little substance. Broadly, the EC90 is the concentration at which the effect reaches the 90% level. Higher therefore signals weaker potency.

Structures can show the parent of a compound that is named as a salt. Some results are limits rather than exact numbers.

For `C/C=C/C[C@@H](C)[C@@H](O)[C@H]1C(=O)N[C@@H](CC)C(=O)N(C)[C@H](OCCN(C)C)C(=O)N(C)[C@@H](CC(C)C)C(=O)N[C@@H](C(C)C)C(=O)N(C)[C@@H](CC(C)C)C(=O)N[C@@H](C)C(=O)N[C@H](C)C(=O)N(C)[C@@H](CC(C)C)C(=O)N(C)[C@@H](CC(C)C)C(=O)N(C)[C@@H](C(C)C)C(=O)N1C` [Compound C, 3-(2-N,N-dimethylaminoethoxy)cyclosporin], in series [1], the IC50 was > 3 µM and the IC90 is > 3 µM. For the same molecule, in series [2], it took 0.18 µM to reach a half-maximal effect (EC50) and the 90% effect level (EC90) was put at 0.64 µM.

Take “3-(ethoxy)-4-(gamma-hydroxymethylleucine)cyclosporin [W]”: the EC50 in series [3] stood at 0.68 µM. In series [2], this molecule yielded an EC50 of 0.13 µM and an EC90 of 0.51 µM.

For `CC=CCC(C)C(O)C1C(=O)NC(CC)C(=O)N(C)C(OCCN2CCCCC2)C(=O)N(C)C(CC(C)C)C(=O)NC(C(C)C)C(=O)N(C)C(CC(C)C)C(=O)NC(C)C(=O)NC(C)C(=O)N(C)C(CC(C)C)C(=O)N(C)C(CC(C)C)C(=O)N(C)C(C(C)C)C(=O)N1C` (stereo not drawn) [K, 3-[2-(piperidin-1-yl)ethoxy]cyclosporin], in series [1], the IC50 was 5.5 µM and the IC90 is 17.8 µM. In series [2], this molecule came in with an EC50 of 0.26 µM and an EC90 of 0.59 µM.

On to `C/C=C/C[C@@H](C)[C@@H](O)[C@H]1C(=O)N[C@@H](CC)C(=O)N(C)C(OCCNC)C(=O)N(C)[C@@H](CC(C)C)C(=O)N[C@@H](C(C)C)C(=O)N(C)[C@@H](CC(C)C)C(=O)N[C@@H](C)C(=O)N[C@H](C)C(=O)N(C)[C@@H](CC(C)C)C(=O)N(C)[C@@H](CC(C)C)C(=O)N(C)[C@@H](C(C)C)C(=O)N1C` (stereo partly drawn) [Compound I, 3-[2-(N-methylamino)ethoxy]cyclosporin], for which, in series [1], the IC50 was determined as 2.83 µM and the IC90 was 17.4 µM. In series [2], the EC50 came out at 1.01 µM and it took 1.87 µM to reach the 90% level (EC90).

For `CC=CCC(C)C(O)C1C(=O)NC(CC)C(=O)N(C)C(SCCN(C)C)C(=O)N(C)C(CC(C)(C)O)C(=O)NC(C(C)C)C(=O)N(C)C(CC(C)C)C(=O)NC(C)C(=O)NC(C)C(=O)N(C)C(CC(C)C)C(=O)N(C)C(CC(C)C)C(=O)N(C)C(C(C)C)C(=O)N1C` [acetate, [(R)-2-(N,N-dimethylamino)ethylthio-Sar]3[4′-hydroxy-MeLeu]4 cyclosporin], in series [1], the IC50 is > 2 µM and the IC90 was > 2 µM. It took 0.3 µM to reach the 90% level in series [2] (EC90).

As for `CC=CCC(C)C(O)C1C(=O)NC(CC)C(=O)N(C)C(SCCN(C)C)C(=O)N(C)C(CC(C)(C)O)C(=O)NC(C(C)C)C(=O)N(C)C(CC(C)C)C(=O)NC(C)C(=O)NC(C)C(=O)N(C)C(CC(C)C)C(=O)N(C)C(CC(C)C)C(=O)N(C)C(C(C)C)C(=O)N1C` [MeSO2, [(R)-2-(N,N-dimethylamino)ethylthio-Sar]3[4′-hydroxy-MeLeu]4 cyclosporin], in series [1], the IC50 was > 2 µM and the IC90 was > 2 µM. Moreover, in series [2], the midpoint of the response, the EC50, lay at 0.16 µM and it took 0.5 µM to reach the 90% level (EC90).

`C/C=C/C[C@@H](C)[C@@H](O)[C@H]1C(=O)N[C@@H](CC)C(=O)N(C)[C@H](OCC(C)(C)C)C(=O)N(C)[C@@H](CC(C)C)C(=O)N[C@@H](C(C)C)C(=O)N(C)[C@@H](CC(C)C)C(=O)N[C@@H](C)C(=O)N[C@H](C)C(=O)N(C)[C@@H](CC(C)C)C(=O)N(C)[C@@H](CC(C)C)C(=O)N(C)[C@@H](C(C)C)C(=O)N1C` [F, 3-(2,2-dimethylpropoxy)cyclosporin]: in series [1], the IC50 is > 20 µM. The molecule also displayed an EC50 in series [2] of 17 µM.

With `CC=CCC(C)C(O)C1C(=O)NC(CC)C(=O)N(C)C(SCCN(C)C)C(=O)N(C)C(CC(C)(C)O)C(=O)NC(C(C)C)C(=O)N(C)C(CC(C)C)C(=O)NC(C)C(=O)NC(C)C(=O)N(C)C(CC(C)C)C(=O)N(C)C(CC(C)C)C(=O)N(C)C(C(C)C)C(=O)N1C` [hydrochloride, [(R)-2-(N,N-dimethylamino)ethylthio-Sar]3[4′-hydroxy-MeLeu]4 cyclosporin], in series [1], the IC50 is > 2 µM and the IC90 was > 2 µM. In addition, in series [2], it took 0.11 µM to reach a half-maximal effect (EC50) and the EC90 came to 0.38 µM.

Consider `C/C=C/C[C@@H](C)[C@@H](O)[C@H]1C(=O)N[C@@H](CC)C(=O)N(C)[C@H](OCCN)C(=O)N(C)[C@@H](CC(C)C)C(=O)N[C@@H](C(C)C)C(=O)N(C)[C@@H](CC(C)C)C(=O)N[C@@H](C)C(=O)N[C@H](C)C(=O)N(C)[C@@H](CC(C)C)C(=O)N(C)[C@@H](CC(C)C)C(=O)N(C)[C@@H](C(C)C)C(=O)N1C` [Compound B, 3-(2-aminoethoxy)cyclosporin], for which, in series [1], the IC50 was 6.31 µM and the IC90 amounted to 20.3 µM. For the same molecule, in series [2], the response was half-maximal at 1.18 µM (EC50) and the EC90 stood at 2.72 µM.

As for `C/C=C/C[C@@H](C)[C@@H](O)[C@H]1C(=O)N[C@@H](CC)C(=O)N(C)C(OCC)C(=O)N(C)[C@@H](CC(C)C)C(=O)N[C@@H](C(C)C)C(=O)N(C)[C@@H](CC(C)C)C(=O)N[C@@H](C)C(=O)N[C@H](C)C(=O)N(C)[C@@H](CC(C)C)C(=O)N(C)[C@@H](CC(C)C)C(=O)N(C)[C@@H](C(C)C)C(=O)N1C` (stereo partly drawn) [M, 3-ethoxycyclosporin], in series [1], the IC50 is > 20 µM and the IC90 was > 20 µM. In series [2], the EC50 stood at 3.35 µM and the 90% effect level (EC90) was put at 6.11 µM.

“[(R)-2-(N,N-dimethylamino)ethylthio-Sar]3[4′-hydroxy-MeLeu]4 cyclosporin [propionate]”: in series [1], the IC50 was > 2 µM and the IC90 was > 2 µM. In series [2], this molecule displayed an EC50 of 0.1 µM and an EC90 of 0.32 µM.

Regarding “[(R)-2-(N,N-dimethylamino)ethylthio-Sar]3[4′-hydroxy-MeLeu]4 cyclosporin [citrate]”, in series [1], the IC50 was > 2 µM and the IC90 was > 2 µM. For the same molecule, in series [2], the EC50 turned out to be 0.11 µM and the 90% effect level (EC90) was put at 0.41 µM.

Turning to “3-(isopropoxy)-4-(gamma-hydroxymethylleucine)cyclosporin [V]”, the EC50 in series [3] was found to be 0.44 µM. Also, in series [2], the EC50 turned out to be 0.36 µM and the EC90 turned out to be 1.2 µM.

Regarding `CC=CCC(C)C(O)C1C(=O)NC(CC)C(=O)N(C)C(OCC(CC)CC)C(=O)N(C)C(CC(C)C)C(=O)NC(C(C)C)C(=O)N(C)C(CC(C)C)C(=O)NC(C)C(=O)NC(C)C(=O)N(C)C(CC(C)C)C(=O)N(C)C(CC(C)C)C(=O)N(C)C(C(C)C)C(=O)N1C` (stereo not drawn) [Compound E, 3-(2-ethylbutoxy)cyclosporin], in series [1], the half-inhibitory concentration (IC50) came to 15.6 µM.

Turning to `C/C=C/C[C@@H](C)[C@@H](O)[C@H]1C(=O)N[C@@H](CC)C(=O)N(C)C(OCCN(C)C(C)C)C(=O)N(C)[C@@H](CC(C)C)C(=O)N[C@@H](C(C)C)C(=O)N(C)[C@@H](CC(C)C)C(=O)N[C@@H](C)C(=O)N[C@H](C)C(=O)N(C)[C@@H](CC(C)C)C(=O)N(C)[C@@H](CC(C)C)C(=O)N(C)[C@@H](C(C)C)C(=O)N1C` (stereo partly drawn) [J, 3-[2-(N-methyl-N-isopropylamino)ethoxy]cyclosporin], in series [1], the IC50 was found to be 8.2 µM and the IC90 is 19.6 µM. For the same molecule, in series [2], the midpoint of the response, the EC50, lay at 0.15 µM and the EC90 stood at 0.53 µM.

Regarding `C/C=C/C[C@@H](C)[C@@H](O)[C@H]1C(=O)N[C@@H](CC)C(=O)N(C)C(OC)C(=O)N(C)[C@@H](CC(C)C)C(=O)N[C@@H](C(C)C)C(=O)N(C)[C@@H](CC(C)C)C(=O)N[C@@H](C)C(=O)N[C@H](C)C(=O)N(C)[C@@H](CC(C)C)C(=O)N(C)[C@@H](CC(C)C)C(=O)N(C)[C@@H](C(C)C)C(=O)N1C` (stereo partly drawn) [A, 3-methoxycyclosporin], in series [1], the IC50 worked out at 2.33 µM and the IC90 is > 3 µM. In series [2], this molecule displayed an EC90 of 0.22 µM.

Take `CC=CCC(C)C(O)C1C(=O)NC(CC)C(=O)N(C)C(SCCN(C)C)C(=O)N(C)C(CC(C)(C)O)C(=O)NC(C(C)C)C(=O)N(C)C(CC(C)C)C(=O)NC(C)C(=O)NC(C)C(=O)N(C)C(CC(C)C)C(=O)N(C)C(CC(C)C)C(=O)N(C)C(C(C)C)C(=O)N1C` [phosphate, [(R)-2-(N,N-dimethylamino)ethylthio-Sar]3[4′-hydroxy-MeLeu]4 cyclosporin]: in series [1], the IC50 was > 2 µM and the IC90 was > 2 µM. Besides, in series [2], the EC50 came to 0.13 µM and the EC90 was found to be 0.47 µM.

In the case of `C/C=C/C[C@@H](C)[C@@H](O)[C@H]1C(=O)N[C@@H](CC)C(=O)N(C)C(OCCO)C(=O)N(C)[C@@H](CC(C)C)C(=O)N[C@@H](C(C)C)C(=O)N(C)[C@@H](CC(C)C)C(=O)N[C@@H](C)C(=O)N[C@H](C)C(=O)N(C)[C@@H](CC(C)C)C(=O)N(C)[C@@H](CC(C)C)C(=O)N(C)[C@@H](C(C)C)C(=O)N1C` (stereo partly drawn) [G, 3-(2-hydroxyethoxy)cyclosporin], in series [1], the IC50 was found to be 10.3 µM and the IC90 was > 20 µM. Moreover, in series [2], the EC50 is < 0.2 µM and the EC90 was found to be 0.57 µM.
